Patent EP0799218B1, “DIARYL-2-(5H)-FURANONES AS COX-2 INHIBITORS” (Merck Frosst Canada & Co., priority 1994, dated 1996)

Assays:
[1] = molecular target: T1, Cox-2 (Homo sapiens, UniProt P35354); assay: Human whole blood assay, Cox-2 (LPS-induced PGE2 production); format: cell-based; settings: LPS 100 µg/ml, 24 hours at 37 °C, PGE2 by radioimmunoassay, read-out: HWB Cox-2 IC50
T1 construct: endogenous in cells; host or cells: fresh heparinized human whole blood from volunteers, stimulated with LPS
T1 sequence (P35354 18-604 limits assumed): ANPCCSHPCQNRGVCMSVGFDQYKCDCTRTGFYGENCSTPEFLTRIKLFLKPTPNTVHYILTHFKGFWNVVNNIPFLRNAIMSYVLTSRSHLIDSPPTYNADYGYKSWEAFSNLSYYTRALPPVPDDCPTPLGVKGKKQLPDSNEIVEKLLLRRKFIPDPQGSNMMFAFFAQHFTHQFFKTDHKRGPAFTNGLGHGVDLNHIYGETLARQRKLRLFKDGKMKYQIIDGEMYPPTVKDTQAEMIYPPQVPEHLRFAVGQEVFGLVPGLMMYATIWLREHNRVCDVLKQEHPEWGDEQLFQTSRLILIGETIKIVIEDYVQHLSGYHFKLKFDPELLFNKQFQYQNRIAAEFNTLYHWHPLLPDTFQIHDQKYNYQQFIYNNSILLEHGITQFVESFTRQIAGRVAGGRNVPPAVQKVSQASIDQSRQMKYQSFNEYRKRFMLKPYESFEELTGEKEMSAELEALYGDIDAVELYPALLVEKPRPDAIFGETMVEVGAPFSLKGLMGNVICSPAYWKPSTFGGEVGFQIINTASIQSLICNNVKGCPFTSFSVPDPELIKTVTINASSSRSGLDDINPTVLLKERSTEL
Method: (§1) Human whole blood provides a protein and cell-rich milieu appropriate for the study of biochemical efficacy of anti-inflammatory compounds such as selective Cox-2 inhibitors. […] This is consistent with the observation that Cox-2 inhibitors have no effect on PGE2 production in normal blood. These inhibitors are active only after incubation of human whole blood with LPS (lipopolysaccharide), which induces Cox-2. This assay can be used to evaluate the inhibitory effect of selective Cox-2 inhibitors on PGE2 production: As well, platelets in whole blood contain a large amount of the Cox-1 enzyme. Immediately following blood clotting, platelets are activated through a thrombin-mediated mechanism. This reaction results in the production of thromboxane B2 (TxB2) via activation of Cox-1. Thus, the effect of test compounds on TxB2 levels levels following blood clotting can be examined and used as an index for Cox-1 activity. Therefore, the degree of selectivity by the test compound can be determined by measuring the levels of PGE2 after LPS induction (Cox-2) and TxB2 following blood clotting (Cox-1) in the same assay.
Fresh blood was collected in heparinized tubes by venipuncture from both male and female volunteers. The subjects had no apparent inflammatory conditions and had not taken any NSAIDs for at least 7 days prior to blood collection. Plasma was immediately obtained from a 2mL blood aliquot to use as blank (basal levels of PGE2). The remaining blood was incubated with LPS (100 µg/ml final concentration, Sigma Chem, #L-2630 from E. coli; diluted in 0.1% BSA-Phosphate buffered saline) for 5 minutes at room temperature. Five hundred µL aliquots of blood were incubated with either 2 µL vehicle (DMSO) or 2 µL of a test compound at final concentrations varying from 10nM to 30µM for 24 hours at 37 °C. At the end of the incubation, the blood was centrifuged at 12,000 x g for 5 minutes to obtain plasma. A 100 µL aliquot of plasma was mixed with 400 µL of methanol for protein precipitation. The supernatant was obtained and was assayed for PGE2 using a radioimmunoassay kit (Amersham, RPA#530) after conversion of PGE2 to its methyl oximate derivative according to the manufacturer's procedure.
(§2) Compounds of the present invention are inhibitors of cyclooxygenase-2 and are thereby useful in the treatment of cyclooxygenase-2 mediated diseases as enumerated above. The activities of the compounds against cyclooxygenase may be seen in the representative results shown below. In the assay, inhibition is determined by measuring the amount of prostaglandin E2 (PGE2) synthesized in the presence of arachidonic acid, cyclooxygenase-1 or cyclooxygenase-2 and a putative inhibitor. The IC50 values represent the concentration of putative inhibitor required to return PGE2 synthesis to 50% of that obtained as compared to the uninhibited control.

[2] = molecular target: T2, Cox-1 (Homo sapiens, UniProt P23219); assay: Human whole blood assay, Cox-1 (clotting-induced TxB2 production); format: cell-based; settings: clotting 1 hour at 37 °C, TxB2 by enzyme immunoassay, read-out: HWB Cox-1 IC50
T2 construct: platelets in whole blood contain a large amount of the Cox-1 enzyme; endogenous in cells; host or cells: platelets in fresh human whole blood, no anticoagulant, clotting for 1 hour at 37 °C
Method: as §1
Fresh blood was collected into vacutainers containing no anticoagulants. Aliquots of 500 µL were immediately transferred to siliconized microcentrifuge tubes preloaded with 2 µL of either DMSO or a test compound at final concentrations varying from 10nM to 30 µM. The tubes were vortexed and incubated at 37 °C for 1 hour to allow blood to clot. At the end of incubation, serum was obtained by centrifugation (12,000 x g for 5 min.). A 100 µL aliquot of serum was mixed with 400 µL of methanol for protein precipitation. The supernatant was obtained and was assayed for TxB2 using a enzyme immunoassay kit (Cayman, #519031) according to the manufacturer's instruction.
as §2

[3] = test system: Rat Paw Edema; assay: Rat paw edema assay (carrageenan-induced); format: in vivo, Male Sprague-Dawley rats; settings: po, 1 hr before subplantar carrageenan, paw volume 3 hr later
Method: Male Sprague-Dawley rats (150 - 200 g) were fasted overnight and were given po either vehicle (1% methocel or 5% Tween 80) or a test compound. One hr later, a line was drawn using a permanent marker at the level above the ankle in one hind paw to define the area of the paw to be monitored. The paw volume (V0) was measured using a plethysmometer (Ugo-Basile, Italy) based on the principle of water displacement The animals were then injected subplantarly with 50 µl of 1% carrageenan solution in saline (FMC Corp, Maine) into the paw using an insulin syringe with a 25-gauge needle (i.e. 500 µg carrageenan per paw). Three hr later, the paw volume (V3) was measured and the increases in paw volume (V3 - V0) were calculated. The animals were sacrificed by CO2 aphyxiation and the absence or presence of stomach lesions scored. Data were compared with the vehicle-control values and percent inhibition calculated. Since a maximum of 60-70% inhibition (paw edema) was obtained with standard NSAIDs, ED30 values were used for comparison. All treatment groups were coded to eliminate observer bias.

T2 sequence (P23219 24-599): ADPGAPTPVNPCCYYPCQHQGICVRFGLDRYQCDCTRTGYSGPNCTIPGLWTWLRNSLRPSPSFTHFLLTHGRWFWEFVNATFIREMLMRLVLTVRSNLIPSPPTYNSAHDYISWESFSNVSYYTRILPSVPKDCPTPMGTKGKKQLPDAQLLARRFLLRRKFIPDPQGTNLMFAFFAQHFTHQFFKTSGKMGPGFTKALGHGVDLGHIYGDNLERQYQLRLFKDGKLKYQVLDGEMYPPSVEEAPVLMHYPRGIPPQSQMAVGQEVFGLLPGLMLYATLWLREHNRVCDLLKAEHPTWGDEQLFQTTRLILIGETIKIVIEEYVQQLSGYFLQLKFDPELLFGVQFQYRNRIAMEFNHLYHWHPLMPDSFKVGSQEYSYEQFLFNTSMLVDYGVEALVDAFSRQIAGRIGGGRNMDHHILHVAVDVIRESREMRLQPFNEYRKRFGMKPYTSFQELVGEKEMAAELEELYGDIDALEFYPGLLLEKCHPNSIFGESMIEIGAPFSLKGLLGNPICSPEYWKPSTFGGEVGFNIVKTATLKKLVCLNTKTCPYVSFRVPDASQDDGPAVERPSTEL

Row | SMILES | IC50 [1] | IC50 [2] | ED30 [3]
1 | COc1cccc(C2=C(c3ccc(S(C)(=O)=O)cc3)C(C)(C)OC2=O)c1 [Example 2, 5,5-Dimethyl-3-(3-methoxyphenyl)-4-(4-(methylsulfonyl)phenyl)-2-(5H)-furanone] | 0.81 µM | > 30 µM | 0.3 mg/kg
2 | CC1(C)OC(=O)C(c2ccccc2)=C1c1ccc(S(C)(=O)=O)cc1 [Example 4, 5,5-Dimethyl-4-(4-(methylsulfonyl)phenyl)-3-phenyl-2-(5H)-furanone] | 0.17 µM | > 30 µM | 0.26 mg/kg
3 | CS(=O)(=O)c1ccc(C2=C(c3ccccc3)C(=O)OC23CCCC3)cc1 [Example 10, 4-(4-(Methylsulfonyl)phenyl)-3-phenyl-1-oxa-spiro[4,4]non-3-en-2-one] | 0.37 µM | 30 µM | 0.41 mg/kg
4 | CC1(C)CC(c2ccc(S(C)(=O)=O)cc2)=C(c2ccccc2)C1=O [Example 11, 5,5-Dimethyl-3-(4-(methylsulfonyl)phenyl)-2-phenylcyclopent-2-enone] | 0.06 µM | 2.2 µM | 1.17 mg/kg
5 | CS(=O)(=O)c1ccc(C2=C(c3ccccc3)C(=O)OC23CC3)cc1 [Example 13, 7-(4-(Methylsulfonyl)phenyl)-6-phenyl-4-oxa-spiro[2,4]-hept-6-en-5-one] | 0.6 µM | > 30 µM | 0.3 mg/kg
6 | CS(=O)(=O)c1ccc(C2=C(c3ccccc3)C(=O)OC2(CF)CF)cc1 [Example 14, 5,5-Bisfluoromethyl-3-phenyl-4-(4-(methylsulfonyl)phenyl)-2-(5H)-furanone] | 1.1 µM | > 30 µM | 0.62 mg/kg
